Consider one compound from US12595222B2, “Curcuminoids, analogs thereof, and methods of making the same” (WiSys Technology Foundation, Inc., priority 2021, dated 2026).

Each structure is given as a SMILES string.

The experiment deals with Epstein-Barr virus (EBV). As to the kind of experiment: EBV reactivation (viral BZLF1 gene expression) inhibition. The experiment is classed as cell-based. Conditions: 3 mM; compared to low expression in unactivated cells. The protocol:
FIG. 20B illustrates EBV reactivation in the presence of the curcuminoids shown in FIG. 28A, measured by increased viral BZLF1 gene expression, is induced with a known reactivating drug, sodium butyrate (3 mM) compared to low expression in unactivated cells, in accordance with various embodiments. EBV reactivation was inhibited by five novel curcuminoids (10 μM).

For the compound `CCCC(=O)[O-].[Na+]` [sodium butyrate], the “EBV reactivation, measured by increased viral BZLF1 gene expression” value is given as “induced”.
